Measured values: ChEMBL document CHEMBL4665621, “The discovery of VU0652957 (VU2957, Valiglurax): SAR and DMPK challenges en route to an mGlu PAM development candidate” (Bioorg Med Chem Lett, 2019)
pEC50, pIC50: −log10 of the molar value.

How the values were obtained:
[1] = biological target: T1, Metabotropic glutamate receptor 4 (Homo sapiens, UniProt Q14833); assay: Positive allosteric modulator activity at human mGlu4 receptor/Gqi5 in presence of EC20 glutamate by calcium mobilization assay; format: functional
[2] = tested on: Rattus norvegicus; assay: Reversal of haloperidol-induced catalepsy in rat assessed as reduction in catalepsy at 3 mg/kg, po dosed along with 1.5 mg/kg haloperidol relative to untreated control; format: functional; design: scale not given: the % may be the effect or the level left
[3] = biological target: T1, Metabotropic glutamate receptor 4; assay: Positive allosteric modulator activity at human mGlu4 receptor/Gqi5 assessed as maximum activity at 30 uM by calcium mobilization assay relative to glutamic acid; format: functional; conditions: filed as positive allosteric modulator
[4] = tested on: Rattus norvegicus; assay: Reversal of haloperidol-induced catalepsy in po dosed rat assessed as minimum effective dose; format: functional; conditions: read-out: MED
[5] = biological target: Cytochrome P450 2C19 (Homo sapiens, UniProt P33261); assay: Inhibition of CYP2C19 (unknown origin); format: ADME
[6] = Brain to plasma partition coefficient, Kp of the compound in Sprague-Dawley rat at 0.20 to 0.25 mg/kg, iv cassette dose measured at 0.25 hrs; format: ADME, organism-based; conditions: dose 0.20-0.25 mg/kg
[7] = biological target: Metabotropic glutamate receptor 4 (Rattus norvegicus, UniProt P31423); assay: Positive allosteric modulator activity at rat mGlu4 receptor/Gqi5 in presence of EC20 glutamate by calcium mobilization assay; format: functional
[8] = biological target: Metabotropic glutamate receptor 4 (Rattus norvegicus) (UniProt P31423); assay: Positive allosteric modulator activity at rat mGlu4 receptor/Gqi5 assessed as maximum activity by calcium mobilization assay relative to glutamic acid; format: functional; conditions: filed as positive allosteric modulator
[9] = Protein binding in human plasma assessed as unbound fraction; format: ADME, cell-free
[10] = biological target: Cytochrome P450 3A4 (Homo sapiens, UniProt P08684); assay: Inhibition of CYP3A4 (unknown origin); format: ADME
[11] = biological target: Cytochrome P450 2C9 (Homo sapiens, UniProt P11712); assay: Inhibition of CYP2C9 (unknown origin); format: ADME
[12] = biological target: T2, Cytochrome P450 1A2 (Homo sapiens, UniProt P05177); assay: Inhibition of CYP1A2 (unknown origin); format: ADME
T2 sequence (P05177 whole entry): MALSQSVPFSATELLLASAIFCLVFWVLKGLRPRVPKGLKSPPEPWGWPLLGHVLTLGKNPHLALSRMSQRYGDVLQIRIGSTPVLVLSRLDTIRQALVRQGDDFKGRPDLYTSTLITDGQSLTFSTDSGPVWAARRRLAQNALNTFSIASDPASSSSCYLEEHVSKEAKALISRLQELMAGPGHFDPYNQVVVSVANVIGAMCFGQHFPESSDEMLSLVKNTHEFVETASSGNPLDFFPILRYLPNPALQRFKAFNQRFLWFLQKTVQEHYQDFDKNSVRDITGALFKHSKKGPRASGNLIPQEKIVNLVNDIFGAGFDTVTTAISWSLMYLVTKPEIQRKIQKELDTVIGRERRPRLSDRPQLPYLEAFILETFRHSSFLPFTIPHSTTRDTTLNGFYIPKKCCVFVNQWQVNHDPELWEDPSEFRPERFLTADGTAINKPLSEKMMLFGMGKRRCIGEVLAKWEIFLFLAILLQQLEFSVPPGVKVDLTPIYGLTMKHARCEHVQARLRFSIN

[13] = Half life in rat; format: ADME; conditions: in vivo
[14] = biological target: Cytochrome P450 2D6 (Homo sapiens, UniProt P10635); assay: Inhibition of CYP2D6 (unknown origin); format: ADME
[15] = Fraction unbound in rat brain homogenate; format: ADME, tissue-based
[16] = Protein binding in rat plasma assessed as unbound fraction; format: ADME, cell-free
[17] = Volume of distribution at steady state in rat; format: ADME; conditions: in vivo
[18] = Hepatic clearance in human; format: ADME

Sequence of Cytochrome P450 2D6 (P10635 whole entry): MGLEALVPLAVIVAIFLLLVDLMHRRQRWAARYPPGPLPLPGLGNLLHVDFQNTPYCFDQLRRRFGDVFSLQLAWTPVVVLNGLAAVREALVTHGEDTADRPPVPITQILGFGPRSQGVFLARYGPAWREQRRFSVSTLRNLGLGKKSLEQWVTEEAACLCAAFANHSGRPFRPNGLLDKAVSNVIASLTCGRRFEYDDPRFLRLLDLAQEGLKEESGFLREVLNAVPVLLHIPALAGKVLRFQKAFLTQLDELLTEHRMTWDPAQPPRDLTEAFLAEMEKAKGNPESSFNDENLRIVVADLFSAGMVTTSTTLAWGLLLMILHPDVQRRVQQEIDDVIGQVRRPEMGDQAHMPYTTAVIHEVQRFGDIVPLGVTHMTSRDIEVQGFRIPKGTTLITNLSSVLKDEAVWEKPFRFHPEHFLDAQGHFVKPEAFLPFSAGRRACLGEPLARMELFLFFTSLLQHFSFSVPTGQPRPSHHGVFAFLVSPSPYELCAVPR
T1 sequence (Q14833 whole entry): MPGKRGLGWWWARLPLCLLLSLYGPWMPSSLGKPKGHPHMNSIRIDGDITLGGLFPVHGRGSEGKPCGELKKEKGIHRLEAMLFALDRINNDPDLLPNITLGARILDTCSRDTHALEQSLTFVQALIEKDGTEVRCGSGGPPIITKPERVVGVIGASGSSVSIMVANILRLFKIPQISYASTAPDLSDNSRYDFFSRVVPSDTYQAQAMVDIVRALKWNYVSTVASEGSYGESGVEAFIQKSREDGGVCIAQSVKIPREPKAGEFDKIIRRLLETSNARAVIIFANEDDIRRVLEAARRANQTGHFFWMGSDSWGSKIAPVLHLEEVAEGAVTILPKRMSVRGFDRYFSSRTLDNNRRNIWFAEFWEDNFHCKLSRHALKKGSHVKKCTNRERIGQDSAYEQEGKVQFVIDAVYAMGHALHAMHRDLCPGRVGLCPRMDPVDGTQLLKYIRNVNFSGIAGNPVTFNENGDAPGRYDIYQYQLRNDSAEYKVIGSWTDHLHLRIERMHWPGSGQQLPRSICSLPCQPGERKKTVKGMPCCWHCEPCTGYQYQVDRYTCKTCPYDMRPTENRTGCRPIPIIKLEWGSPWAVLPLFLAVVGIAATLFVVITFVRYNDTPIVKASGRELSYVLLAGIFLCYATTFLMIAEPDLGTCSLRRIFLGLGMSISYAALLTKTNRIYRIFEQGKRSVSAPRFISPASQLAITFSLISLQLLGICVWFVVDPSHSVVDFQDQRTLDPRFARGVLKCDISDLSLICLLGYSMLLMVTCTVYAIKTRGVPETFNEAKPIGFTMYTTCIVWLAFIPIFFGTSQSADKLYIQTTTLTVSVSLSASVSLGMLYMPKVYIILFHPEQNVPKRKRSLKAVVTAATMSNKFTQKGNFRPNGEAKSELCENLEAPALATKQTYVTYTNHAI
Sequence of Cytochrome P450 2C9 (P11712 whole entry): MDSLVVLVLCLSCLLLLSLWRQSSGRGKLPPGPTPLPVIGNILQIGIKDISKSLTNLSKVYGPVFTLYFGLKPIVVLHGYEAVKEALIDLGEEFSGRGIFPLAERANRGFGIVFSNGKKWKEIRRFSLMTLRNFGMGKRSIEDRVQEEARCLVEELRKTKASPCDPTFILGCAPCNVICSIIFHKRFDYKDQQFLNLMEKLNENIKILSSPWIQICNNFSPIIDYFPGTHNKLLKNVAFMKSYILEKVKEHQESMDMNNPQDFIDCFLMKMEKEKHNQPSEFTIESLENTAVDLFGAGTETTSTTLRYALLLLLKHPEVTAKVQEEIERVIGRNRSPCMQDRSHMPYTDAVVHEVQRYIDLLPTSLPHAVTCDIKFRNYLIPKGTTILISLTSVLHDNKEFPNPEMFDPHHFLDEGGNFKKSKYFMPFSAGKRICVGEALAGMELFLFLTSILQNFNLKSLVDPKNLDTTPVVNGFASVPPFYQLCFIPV
Sequence of Cytochrome P450 3A4 (P08684 whole entry): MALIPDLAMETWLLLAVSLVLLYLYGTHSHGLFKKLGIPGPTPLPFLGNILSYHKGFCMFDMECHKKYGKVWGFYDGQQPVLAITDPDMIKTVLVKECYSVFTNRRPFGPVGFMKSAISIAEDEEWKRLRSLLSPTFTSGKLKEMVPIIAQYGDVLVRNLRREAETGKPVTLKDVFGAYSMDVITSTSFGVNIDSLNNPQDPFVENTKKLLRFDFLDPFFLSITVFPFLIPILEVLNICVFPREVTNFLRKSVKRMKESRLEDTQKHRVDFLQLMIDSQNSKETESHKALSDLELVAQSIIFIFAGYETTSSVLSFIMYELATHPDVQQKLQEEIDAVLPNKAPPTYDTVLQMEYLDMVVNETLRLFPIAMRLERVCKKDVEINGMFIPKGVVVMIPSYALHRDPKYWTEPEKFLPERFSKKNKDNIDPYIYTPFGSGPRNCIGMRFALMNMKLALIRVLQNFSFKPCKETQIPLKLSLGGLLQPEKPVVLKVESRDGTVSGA
Sequence of Cytochrome P450 2C19 (P33261 whole entry): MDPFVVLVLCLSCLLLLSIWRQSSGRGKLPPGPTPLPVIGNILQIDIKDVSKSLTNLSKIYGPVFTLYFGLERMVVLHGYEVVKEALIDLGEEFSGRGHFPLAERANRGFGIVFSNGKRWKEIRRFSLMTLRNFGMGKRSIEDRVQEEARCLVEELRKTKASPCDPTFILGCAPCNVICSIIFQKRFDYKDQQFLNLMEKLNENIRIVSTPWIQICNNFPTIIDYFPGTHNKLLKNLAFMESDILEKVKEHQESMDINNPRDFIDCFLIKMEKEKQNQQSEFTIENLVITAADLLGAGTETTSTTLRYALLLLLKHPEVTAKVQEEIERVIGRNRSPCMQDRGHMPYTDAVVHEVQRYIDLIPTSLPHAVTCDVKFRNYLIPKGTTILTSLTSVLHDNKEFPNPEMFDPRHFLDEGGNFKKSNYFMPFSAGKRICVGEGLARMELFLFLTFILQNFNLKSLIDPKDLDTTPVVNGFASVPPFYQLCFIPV
Sequence of Metabotropic glutamate receptor 4 (Rattus norvegicus) (P31423 whole entry): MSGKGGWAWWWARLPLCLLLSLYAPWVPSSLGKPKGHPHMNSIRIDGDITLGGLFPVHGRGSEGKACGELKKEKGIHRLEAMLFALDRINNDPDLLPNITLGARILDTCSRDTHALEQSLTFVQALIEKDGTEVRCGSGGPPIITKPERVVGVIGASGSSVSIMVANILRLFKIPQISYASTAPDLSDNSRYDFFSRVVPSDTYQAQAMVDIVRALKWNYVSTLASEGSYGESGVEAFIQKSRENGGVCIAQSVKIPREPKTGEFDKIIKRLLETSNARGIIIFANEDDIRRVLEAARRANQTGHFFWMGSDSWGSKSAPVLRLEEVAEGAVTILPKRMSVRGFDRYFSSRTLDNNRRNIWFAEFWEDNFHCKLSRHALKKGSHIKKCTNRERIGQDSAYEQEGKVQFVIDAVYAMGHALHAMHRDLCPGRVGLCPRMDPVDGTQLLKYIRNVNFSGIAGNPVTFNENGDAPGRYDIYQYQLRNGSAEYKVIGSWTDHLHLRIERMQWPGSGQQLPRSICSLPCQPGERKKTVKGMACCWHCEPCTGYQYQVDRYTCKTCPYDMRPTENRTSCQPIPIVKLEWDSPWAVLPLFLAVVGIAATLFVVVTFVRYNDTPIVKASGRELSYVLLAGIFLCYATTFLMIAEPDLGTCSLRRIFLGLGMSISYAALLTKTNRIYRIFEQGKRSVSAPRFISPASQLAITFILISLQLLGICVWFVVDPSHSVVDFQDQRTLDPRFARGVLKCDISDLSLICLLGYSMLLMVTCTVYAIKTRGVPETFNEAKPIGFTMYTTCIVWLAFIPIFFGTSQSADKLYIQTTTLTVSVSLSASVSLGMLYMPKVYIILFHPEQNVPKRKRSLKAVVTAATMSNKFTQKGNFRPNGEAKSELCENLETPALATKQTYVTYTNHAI
Sequence of Metabotropic glutamate receptor 4 (Rattus norvegicus, UniProt P31423) (P31423 whole entry): as above

SMILES | pEC50 [1] | Activity [3] [%] | other results
c1cnc2cc(Nc3n[nH]c4cccnc34)ccc2c1 | < 5.00 |  | 
FC(F)(F)c1nccc2cc(Nc3n[nH]c4ncccc34)ccc12 | 7.19 | 93 | Activity [2]: 50%; minimal effective dose [4]: 1 mg/kg; pIC50 [5]: 4.90; Kp at 0.25 h [6]: 1.5; pEC50 [7]: 6.71; Emax [8]: 123%
c1cnc2c(Nc3ccc4cnccc4c3)n[nH]c2c1 | 7.12 | 114 | Fu [9]: 0.092 fraction; pIC50 [10]: 6.36; pIC50 [11]: 5.87; pIC50 [12]: 6.82; t1/2 [13]: 10.2 h; pIC50 [14]: 5.40; Fu [15]: 0.029%; fraction unbound [16]: 0.046; Vdss [17]: 4.88 L/kg
COCCNc1nccc2cc(Nc3n[nH]c4cccnc34)ccc12 | 6.92 | 89 | 
c1cnc2ccc(Nc3n[nH]c4cccnc34)cc2c1 | 6.14 | 42 | 
Cc1ccn(-c2nccc3cc(Nc4n[nH]c5cccnc45)ccc23)n1 | 6.63 | 84 | 
c1cnc2c(Nc3ccc4c(-n5cccn5)nccc4c3)n[nH]c2c1 | 7.20 | 85 | Fu [9]: 0.09 fraction; pIC50 [10]: 4.89; pIC50 [11]: 5.14; pIC50 [12]: 5.82; pIC50 [14]: 5.14; Fu [15]: 0.029%; Fu [16]: 0.046 fraction; Kp at 0.25 h [6]: 1.37; CLH [18]: 35.7 mL/min/kg
FC1(F)CCN(c2nccc3cc(Nc4n[nH]c5cccnc45)ccc23)C1 | 6.60 | 75 | 
O=c1[nH]ccc2cc(Nc3n[nH]c4cccnc34)ccc12 | 6.58 | 77 | pIC50 [10]: < 4.52; pIC50 [11]: < 4.52; pIC50 [12]: 5.48
CCc1nccc2cc(Nc3n[nH]c4cccnc34)ccc12 | 7.35 | 64 | pIC50 [12]: > 6.00
O=c1c2ccc(Nc3n[nH]c4cccnc34)cc2ccn1C1CCCC1 | 5.76 | 22 | 
c1cnc2c(Nc3ccc4ccncc4c3)n[nH]c2c1 | < 5.00 |  | 
c1cnc2c(Nc3ccc4c(NC5CCC5)nccc4c3)n[nH]c2c1 | 6.06 | 71 | 
Cn1ccc2cc(Nc3n[nH]c4cccnc34)ccc2c1=O | < 5.00 | 30 | 
c1cnc2c(Nc3ccc4ncncc4c3)n[nH]c2c1 | < 5.00 |  | 
CN1CCN(c2nccc3cc(Nc4n[nH]c5cccnc45)ccc23)CC1 | 5.89 | 72 | 
CC(c1nccc2cc(Nc3n[nH]c4cccnc34)ccc12)C(F)(F)F (stereo not given) | 7.44 | 100 | Kp at 0.25 h [6]: 2.2

SMILES | pEC50 [1] | Activity [3] [%] | other results
c1cnc2c(Nc3ccc4c(C5CC5)nccc4c3)n[nH]c2c1 | 7.15 | 86 | pIC50 [12]: > 6.00
FC(F)c1nccc2cc(Nc3n[nH]c4cccnc34)ccc12 | 8.10 | 67 | Fu [9]: 0.03 fraction; pIC50 [10]: < 4.52; Activity [2]: 45%; pIC50 [11]: 4.52; pIC50 [12]: 6.52; pIC50 [14]: < 4.52; Fu [16]: 0.032 fraction; Kp at 0.25 h [6]: 2.2
c1cnc2c(Nc3ccc4nccnc4c3)n[nH]c2c1 | < 5.00 |  | 
FC(F)(F)c1nccc2cc(Nc3n[nH]c4nccnc34)ccc12 | 7.29 | 83 | Activity [2]: 24%; half-life [13]: < 1 h
FC(F)(F)C1CCCCN1c1nccc2cc(Nc3n[nH]c4cccnc34)ccc12 (stereo not given) | 6.51 | 57 | 
c1cnc2c(Nc3ccc4c(N5CCCC5)nccc4c3)n[nH]c2c1 | 5.77 | 54 | 
O=c1c2ccc(Nc3n[nH]c4cccnc34)cc2ccn1CC1CCC1 | 6.19 | 31 | 
FC(F)(F)c1nccc2cc(Nc3n[nH]c4cccnc34)ccc12 | 7.74 | 77 | Activity [2]: 24%; half-life [13]: < 1 h; Kp at 0.25 h [6]: 4.3
c1cnc2c(Nc3ccc4c(N5CCCCC5)nccc4c3)n[nH]c2c1 | 6.67 | 74 | 
c1ccc(CNc2nccc3cc(Nc4n[nH]c5cccnc45)ccc23)cc1 | 5.87 | 58 | 
CCN(CC)c1nccc2cc(Nc3n[nH]c4cccnc34)ccc12 | 6.79 | 95 | 
c1ccc2cc(Nc3n[nH]c4cccnc34)ccc2c1 | 6.39 | 79 | 
Cn1nc(C(F)(F)F)cc1-c1nccc2cc(Nc3n[nH]c4cccnc34)ccc12 | 6.88 | 84 | 
Cc1cc(C)n(-c2nccc3cc(Nc4n[nH]c5cccnc45)ccc23)n1 | 6.14 | 70 | 
c1cnc2c(Nc3ccc4cnccc4n3)n[nH]c2c1 | < 5.00 |  | 
Cn1nccc1-c1nccc2cc(Nc3n[nH]c4cccnc34)ccc12 | 7.35 | 78 | Fu [9]: 0.096 fraction; Fu [16]: 0.088 fraction; Kp at 0.25 h [6]: 1.6; CLH [18]: 11.5 mL/min/kg
CC(C)Cn1ccc2cc(Nc3n[nH]c4cccnc34)ccc2c1=O | 6.16 | 24 | 
